{
  "source": "the SangsterLogP compilation",
  "data": [
    {"assay": "method code SF-HPLC, from DOI: 10.1002/jps.2600750811, PMID: 3772750", "conditions": "not given", "values": [
      {"smiles": "CC[C@H](C(=O)OCc1ccc(Cl)cc1)[C@H](COC(=O)c1ccccc1)Cc1cncn1C", "logP": 4.9},
      {"smiles": "CC[C@H](C(=O)OCc1ccccc1)[C@H](COC(=O)c1ccccc1)Cc1cncn1C", "logP": 4.37},
      {"smiles": "CC[C@H](C(=O)OCc1ccccc1)[C@H](COC(=O)c1cccnc1)Cc1cncn1C", "logP": 3.05},
      {"smiles": "CCC(C(=O)OCc1ccccc1)C(COC(=O)Cc1ccccc1)Cc1cncn1C", "note": "(stereo unspecified)", "logP": 4}
    ]},
    {"assay": "method code SF-HPLC, from DOI: 10.1002/jps.2600750811, PMID: 3772750", "conditions": "pH 7.4", "values": [
      {"smiles": "CC[C@H](C(=O)OCc1ccccc1)[C@H](COC(=O)c1cccc(Cl)c1)Cc1cncn1C", "logD": 4.93},
      {"smiles": "CC[C@H](C(=O)OCc1ccc(C)cc1)[C@H](COC(=O)c1ccccc1)Cc1cncn1C", "logD": 4.7},
      {"smiles": "CC[C@H](C(=O)OCc1ccc(C)cc1)[C@H](COC(=O)C(C)(C)C)Cc1cncn1C", "logD": 4.4},
      {"smiles": "CCCC(=O)OCC(Cc1cncn1C)C(CC)C(=O)OCc1ccccc1", "note": "(stereo unspecified)", "logD": 3.63},
      {"smiles": "CCCC(=O)OC[C@H](Cc1cncn1C)[C@H](CC)C(=O)OCc1ccc(C)cc1", "logD": 4.19},
      {"smiles": "CCCCCC(=O)OCC(Cc1cncn1C)C(CC)C(=O)OCc1ccccc1", "note": "(stereo unspecified)", "logD": 4.6},
      {"smiles": "CC[C@H](C(=O)OCc1ccc(C)cc1)[C@H](COC(C)=O)Cc1cncn1C", "logD": 3.16}
    ]}
  ]
}
